Reference: ChEMBL document CHEMBL1154572, “Stephanotic acid, a novel cyclic pentapeptide from the stem of Stephanotis floribunda” (2000)

Legend:
[1] = test system: KB; assay: Cytotoxicity against human KB cells; type: functional; settings: read-out: ED50
[2] = test system: L1210; assay: Cytotoxicity against mouse L1210 cells; type: functional; settings: L1210, read-out: ED50

Row | SMILES | EC50 [1] [µg/mL] | EC50 [2] [µg/mL]
1 | CC[C@H](C)[C@@H]1NC(=O)[C@@H](NC(=O)[C@@H]2CCC(=O)N2)[C@@H](C(C)C)c2ccc3c(c[nH]c3c2)C[C@@H](C(=O)OC)NC(=O)[C@H](C(C)C)NC1=O [METHYL STEPHANATE] | > 50 | > 50
2 | CC[C@H](C)[C@@H]1NC(=O)[C@@H](NC(=O)[C@@H]2CCC(=O)N2)[C@@H](C(C)C)c2ccc3c(c[nH]c3c2)C[C@@H](C(=O)O)NC(=O)[C@H](C(C)C)NC1=O [STEPHANOTIC ACID] | > 50 | > 50
